Measurements taken from ChEMBL document CHEMBL2007661, “Compounds: GSK PKIS; Assays: UNC Frye lab” (2012).
Values joined by “and” are separate entries in the source; they are usually repeats but may differ in a detail not shown here. Identical values can stand only once.

What was measured:
[1] = target: T1, Serine/threonine-protein kinase TBK1 (Homo sapiens) (UniProt Q9UHD2); conditions: at 1 µM
T1 sequence (whole entry): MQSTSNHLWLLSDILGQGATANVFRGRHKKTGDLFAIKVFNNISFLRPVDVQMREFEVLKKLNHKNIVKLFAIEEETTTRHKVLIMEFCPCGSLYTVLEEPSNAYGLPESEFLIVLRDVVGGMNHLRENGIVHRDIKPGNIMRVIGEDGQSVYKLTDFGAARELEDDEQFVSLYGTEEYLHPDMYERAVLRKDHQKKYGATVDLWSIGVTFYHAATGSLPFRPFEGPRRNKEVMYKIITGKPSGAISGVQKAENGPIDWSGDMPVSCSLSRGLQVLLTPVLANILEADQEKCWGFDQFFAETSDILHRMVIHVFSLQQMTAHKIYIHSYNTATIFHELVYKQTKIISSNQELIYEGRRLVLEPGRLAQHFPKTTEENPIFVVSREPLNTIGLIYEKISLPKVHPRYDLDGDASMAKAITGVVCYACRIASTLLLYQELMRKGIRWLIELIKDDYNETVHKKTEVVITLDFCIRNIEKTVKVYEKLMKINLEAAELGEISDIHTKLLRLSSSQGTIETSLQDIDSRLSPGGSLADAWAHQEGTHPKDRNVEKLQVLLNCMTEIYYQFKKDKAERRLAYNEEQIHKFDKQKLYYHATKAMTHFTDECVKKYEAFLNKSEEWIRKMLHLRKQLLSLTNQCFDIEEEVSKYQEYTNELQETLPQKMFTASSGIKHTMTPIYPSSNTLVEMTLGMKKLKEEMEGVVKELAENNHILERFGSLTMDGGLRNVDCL

[2] = target: T2, Inhibitor of nuclear factor kappa-B kinase subunit beta (Homo sapiens) (UniProt O14920); conditions: at 1 µM
T2 sequence (whole entry): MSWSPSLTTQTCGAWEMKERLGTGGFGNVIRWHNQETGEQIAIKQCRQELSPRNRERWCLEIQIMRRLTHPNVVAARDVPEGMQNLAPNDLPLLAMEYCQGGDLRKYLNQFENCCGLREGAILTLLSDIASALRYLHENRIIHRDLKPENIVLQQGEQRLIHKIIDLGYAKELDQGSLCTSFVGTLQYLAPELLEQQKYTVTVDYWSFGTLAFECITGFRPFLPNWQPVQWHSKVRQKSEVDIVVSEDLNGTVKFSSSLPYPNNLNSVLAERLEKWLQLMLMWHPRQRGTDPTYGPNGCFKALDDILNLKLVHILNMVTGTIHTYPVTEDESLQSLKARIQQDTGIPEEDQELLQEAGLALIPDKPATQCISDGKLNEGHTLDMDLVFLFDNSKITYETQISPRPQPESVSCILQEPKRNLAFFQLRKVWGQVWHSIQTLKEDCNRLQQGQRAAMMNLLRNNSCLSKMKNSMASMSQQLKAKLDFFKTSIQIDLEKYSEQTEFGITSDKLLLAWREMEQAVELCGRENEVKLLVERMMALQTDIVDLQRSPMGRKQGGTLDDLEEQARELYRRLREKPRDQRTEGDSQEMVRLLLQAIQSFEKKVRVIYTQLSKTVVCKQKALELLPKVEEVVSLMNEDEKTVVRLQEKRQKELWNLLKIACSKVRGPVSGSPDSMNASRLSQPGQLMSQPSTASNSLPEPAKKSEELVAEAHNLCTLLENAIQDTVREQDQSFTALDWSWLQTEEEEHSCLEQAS

| SMILES | inhibition [1] | inhibition [2] |
| --- | --- | --- |
| CC(C)c1ccc(Nc2nccc(-c3cnn4ncccc34)n2)cc1 | 18% and 19% | -4% and -10% |
| COc1cc(Nc2ncc(-c3ccccc3)o2)cc(OC)c1OC | 35% and 27% | 15% and 0% |
| OCc1ccc(-c2nc(-c3ccccn3)c(-c3ccc4c(c3)OCO4)[nH]2)cc1 | -6% and -5% | -4% and -3% |
| COc1cc2ncn(-c3cc(OCc4ccccc4C(F)(F)F)c(C(=O)N(C)C)s3)c2cc1OC | -1% and 0% | -3% and -1% |
| O=C(Nc1n[nH]c2nnc(-c3cccnc3)cc12)C1CC1 | 5% and 3% | 2% |
| NCc1ccc(-n2c(-c3nonc3N)nc3cnccc32)cc1 | 6% and 5% | -6% and -2% |
| COc1cccc(-n2cnc3c(N/N=C/c4ccncc4)ncnc32)c1 | 4% and -1% | -3% and 4% |
| Cc1cc(O)cc(C)c1/C=C/c1cncc(C(=O)N(C)C)c1 | 1% and 6% | 3% and 2% |
| COC(=O)Nc1nc2ccc(Oc3ccc(NC(=O)Nc4cccc(Cl)c4)cc3)cc2[nH]1 | 0% and 2% | -2% and 0% |
| COC(=O)c1ccc2c(c1)C(=Cc1cc(Br)c(O)c(Br)c1)C(=O)N2 | 36% | 0% and -2% |
| COc1cccc(-n2ncc3c(N/N=C/c4cccc(F)c4)ncnc32)c1 | 6% and 5% | -7% and -5% |
| CCn1c(-c2nonc2N)nc2c(C#CC(C)(C)O)nc(OCCNC)cc21 | 23% and 19% | -2% |
| O=C1NC(=O)C(c2ccc(Cl)cc2)=C1Nc1ccc(Cl)c(C(=O)O)c1 | -2% and -4% | -5% and -2% |
| O=C(NCC1CC1)c1ccc(-c2cccc(C(=O)NC3CC3)c2)cc1 | 2% and 1% | 1% and 4% |
| CCn1c(-c2nonc2N)nc2ccncc21 | -4% and -5% | -4% and -5% |
| c1ccc(Nc2ncc(-c3ccccc3)o2)cc1 | 2% and 1% | -4% |
| NC(=O)c1ccc(-c2nc(-c3ccccn3)c(-c3ccc4c(c3)OCO4)[nH]2)cc1 | 0% and 5% | 5% and 2% |
| CCN1CCC(CC(=O)Nc2n[nH]c3nc(-c4cccs4)c(Br)cc23)CC1 | 8% and 6% | -4% and -3% |
| CNC(=O)c1cncc(/C=C/c2ccccc2C)c1 | 2% and 5% | -1% and -3% |
| CN1CCC(C(=O)Nc2n[nH]c3nnc(-c4ccccc4)cc23)CC1 | -3% and -7% | -4% |
| CNC(=O)c1ncccc1Nc1nc(Nc2cc3c(cc2OC)CCCN3C(=O)CN(C)C)nc2[nH]ccc12 | 8% and 12% | -5% and -3% |
| Nc1nonc1-c1nc2cnccc2n1C1CC1 | 8% | -3% and 2% |
| CN1CCC(n2cnc(-c3ccc(F)cc3)c2-c2ccnc(Nc3ccccc3)n2)CC1 | 0% and -2% | -3% and 2% |
| O=S(=O)(CCNCc1ccc(-c2ccc3ncnc(Nc4ccc(OCc5cccc(F)c5)c(Cl)c4)c3c2)o1)c1ccccc1 | 12% and 18% | 0% and -2% |
| CN(C)CCCNc1nccc(-c2c(-c3ccc(F)cc3)nn3cc(C(F)(F)F)ccc23)n1 | -1% and 2% | 2% and 0% |
| NS(=O)(=O)c1ccc(Nc2cc(-c3ccc(O)c(F)c3)n[nH]2)cc1 | 16% and 17% | -2% and -1% |
